Source: patent US20110313156A1 (BOEHRINGER INGELHEIM INTERNATIONAL GMBH, priority 2008, published 2011)

The compounds below were run against T1, His6-PDK1 (aa 52-556) (Homo sapiens, UniProt O15530) (assay: PDK1 kinase assay III (with Tween 20)). Conditions: compound at 10 μM; PDK1 kinase assay III (values without asterisk); read-out: % CTL (residual activity of the enzyme relative to DMSO control).
T1 construct: 15 μL His6-PDK1 (aa 52-556) 3.33 ng/well); host or cells: baculovirus-infected insect cells
T1 sequence (O15530 52-556): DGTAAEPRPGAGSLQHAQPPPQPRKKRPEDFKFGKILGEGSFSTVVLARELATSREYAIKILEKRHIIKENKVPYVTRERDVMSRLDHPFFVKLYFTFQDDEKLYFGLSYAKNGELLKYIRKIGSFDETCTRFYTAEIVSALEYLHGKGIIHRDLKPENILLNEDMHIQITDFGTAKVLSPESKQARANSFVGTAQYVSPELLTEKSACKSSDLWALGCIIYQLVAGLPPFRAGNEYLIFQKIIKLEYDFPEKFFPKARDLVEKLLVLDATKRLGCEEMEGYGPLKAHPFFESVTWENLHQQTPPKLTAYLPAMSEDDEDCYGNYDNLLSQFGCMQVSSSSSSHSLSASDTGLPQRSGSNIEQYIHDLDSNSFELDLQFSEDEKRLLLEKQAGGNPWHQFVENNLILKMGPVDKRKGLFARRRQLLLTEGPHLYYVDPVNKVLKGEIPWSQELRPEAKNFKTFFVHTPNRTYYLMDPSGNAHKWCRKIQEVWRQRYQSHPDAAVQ
Format: biochemical
Summary of the method: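 Started with ATP, incubated 90 min at ambient temperature, then stopped with phosphoric acid. Asterisked values come from assay II (24 h or 5 min incubation).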

Compound | remaining activity at 10 µM
Cc1c(C(=O)NCC#Cc2ccc3nc(Nc4ccc(N(C)C5CCN(C)CC5)cc4)ncc3c2)c(=O)n(Cc2ccc(F)c(F)c2)n1C [III-40, 2-(3,4-difluorobenzyl)-1,5-dimethyl-N-{3-[2-({4-[methyl(1-methylpiperidin-4-yl)amino]phenyl}amino)quinazolin-6-yl]prop-2-yn-1-yl}-3-oxo-2,3-dihydro-1H-pyrazole-4-carboxamide] | 13.5%
CN1CCC(N(C)c2ccc(Nc3ncc4cc(C#CCNC(=O)c5cc(Cl)nn(Cc6ccc(F)c(F)c6)c5=O)ccc4n3)cc2)CC1 [III-41, 6-chloro-2(3,4-difluorobenzyl)-N-{3-[2-({4-[methyl(1-methylpiperidin-4-yl)amino]phenyl}amino)quinazolin-6-yl]prop-2-yn-1-yl}-3-oxo-2,3-dihydropyridazine-4-carboxamide] | 12.7%
Nc1ncc2cc(C#CCNC(=O)c3cncn(Cc4ccc(F)c(F)c4)c3=O)ccc2n1 [III-42, N-[3-(2-aminoquinazolin-6-yl)prop-2-yn-1-yl]-1-(3,4-difluorobenzyl)-6-oxo-1,6-dihydropyrimidine-5-carboxamide] | 14.7%
CNc1ncc2cc(C#CCNC(=O)c3cncn(Cc4ccc(F)c(F)c4)c3=O)ccc2n1 [III-43, 1-(3,4-difluorobenzyl)-N-{3-[2-(methylamino)quinazolin-6-yl]prop-2-yn-1-yl}-6-oxo-1,6-dihydropyrimidine-5-carboxamide] | 20.3%
N#Cc1ccc(Nc2ncc3cc(C#CCNC(=O)c4cncn(Cc5ccc(F)c(F)c5)c4=O)ccc3n2)cc1 [III-44, N-(3-{2-[(4-cyanophenyl)amino]quinazolin-6-yl}prop-2-yn-1-yl)-1-(3,4-difluorobenzyl)-6-oxo-1,6-dihydropyrimidine-5-carboxamide] | 30.4%
Cc1c(C(=O)NCC#Cc2ccc3nc(Nc4ccc(C#N)cc4)ncc3c2)c(=O)n(Cc2ccc(F)c(F)c2)n1C [III-45, N-(3-{2-[(4-cyanophenyl)amino]quinazolin-6-yl}prop-2-yn-1-yl)-2-(3,4-difluorobenzyl)-1,5-dimethyl-3-oxo-2,3-dihydro-1H-pyrazole-4-carboxamide] | 19.8%
COC(=O)c1ccc(Nc2ncc3cc(C#CCNC(=O)c4c(C)n(C)n(Cc5ccc(F)c(F)c5)c4=O)ccc3n2)cc1 [III-46, methyl-4-({6-[3-({[2-(3,4-difluorobenzyl)-1,5-dimethyl-3-oxo-2,3-dihydro-1H-pyrazol-4-yl]carbonyl}amino)prop-1-yn-1-yl]quinazolin-2-yl}amino)benzoate] | 21%
Cc1c(C(=O)NCC#Cc2ccc3nc(Nc4ccc(C(=O)O)cc4)ncc3c2)c(=O)n(Cc2ccc(F)c(F)c2)n1C [III-47] | 13.3%
CNc1ncc2cc(/C=C/CNC(=O)c3cncn(Cc4ccc(F)c(F)c4)c3=O)cc(OCCN)c2n1 [III-59] | 18.3%
NCCOc1cc(/C=C/CNC(=O)c2cncn(Cc3ccc(F)c(F)c3)c2=O)cc2cnc(Nc3ccccc3)nc12 [III-63] | 14.2%
Cc1c(C(=O)NCC#Cc2cc(OCCCN)c3nc(Nc4ccc(N5CCOCC5)cc4)ncc3c2)c(=O)n(Cc2ccc(F)c(F)c2)n1C [III-74] | 13%
Cc1c(C(=O)NCC#Cc2cc(OC3CCNC3)c3nc(Nc4ccc(N5CCOCC5)cc4)ncc3c2)c(=O)n(Cc2ccc(F)c(F)c2)n1C (stereo not shown) [III-76] | 11.8%
Cc1cccc(Nc2ncc3cc(C#CCNC(=O)c4c(C)n(C)n(Cc5ccc(F)c(F)c5)c4=O)ccc3n2)c1 [III-79] | 20%
Cc1c(C(=O)NCC#Cc2ccc3nc(Nc4ccc(C(=O)N(C)CCCN(C)C)cc4)ncc3c2)c(=O)n(Cc2ccc(F)c(F)c2)n1C [III-90] | 13.3%
COCCCN(C)C(=O)c1ccc(Nc2ncc3cc(C#CCNC(=O)c4cncn(Cc5ccc(F)c(F)c5)c4=O)ccc3n2)cc1 [III-104] | 15.8%
O=C(NCCO)c1ccc(Nc2ncc3cc(C#CCNC(=O)c4cncn(Cc5ccc(F)c(F)c5)c4=O)ccc3n2)cc1 [III-115] | 13.5%
